Measurements from the NIST ThermoML archive (doi:10.1021/je0603325).

Assay: molar heat capacity at constant pressure; xn = mol fraction of the nth substance listed
Conditions: 101 kPa, Liquid, Small sample (50 mg) DSC

BrCCBr [1,2-dibromoethane] + CCCCCCC
molar heat capacity at constant pressure [J/K/mol]
Conditions | x1 = 0.1016 | x1 = 0.2016 | x1 = 0.2989 | x1 = 0.3977 | x1 = 0.4996 | x1 = 0.5991 | x1 = 0.6928 | x1 = 0.8022 | x1 = 0.9003 | x1 = 1
293.15 K | 213.58 | 204.39 | 196.15 | 187.73 | 179.31 | 170.59 | 162.47 | 153.18 | 144.9 | 136.87
294.15 K | 213.9 | 204.73 | 196.48 | 188.03 | 179.43 | 170.8 | 162.6 | 153.26 | 144.94 | 136.9
295.15 K | 214.26 | 204.92 | 196.66 | 188.2 | 179.65 | 170.96 | 162.81 | 153.4 | 145.07 | 136.95
296.15 K | 214.59 | 205.3 | 196.95 | 188.51 | 179.89 | 171.13 | 162.9 | 153.53 | 145.16 | 136.99
297.15 K | 214.9 | 205.51 | 197.29 | 188.66 | 180.09 | 171.23 | 163.05 | 153.63 | 145.24 | 137.02
298.15 K | 215.25 | 205.83 | 197.53 | 188.94 | 180.26 | 171.4 | 163.18 | 153.72 | 145.27 | 137.04
299.15 K | 215.55 | 206.18 | 197.72 | 189.11 | 180.39 | 171.55 | 163.24 | 153.84 | 145.33 | 137.09
300.15 K | 215.9 | 206.45 | 198 | 189.43 | 180.66 | 171.77 | 163.47 | 153.91 | 145.4 | 137.11
301.15 K | 216.32 | 206.71 | 198.31 | 189.64 | 180.79 | 171.9 | 163.5 | 153.98 | 145.47 | 137.15
302.15 K | 216.6 | 207.03 | 198.6 | 189.82 | 181.03 | 172.01 | 163.71 | 154.13 | 145.6 | 137.2
303.15 K | 216.95 | 207.33 | 198.77 | 190.01 | 181.17 | 172.23 | 163.89 | 154.24 | 145.65 | 137.25
304.15 K | 217.33 | 207.57 | 199.17 | 190.33 | 181.4 | 172.31 | 163.94 | 154.32 | 145.75 | 137.29
305.15 K | 217.7 | 207.95 | 199.39 | 190.62 | 181.54 | 172.49 | 164.06 | 154.37 | 145.77 | 137.32
306.15 K | 218.07 | 208.28 | 199.58 | 190.75 | 181.72 | 172.71 | 164.29 | 154.55 | 145.83 | 137.39
307.15 K | 218.39 | 208.47 | 199.9 | 191.03 | 181.95 | 172.88 | 164.4 | 154.6 | 145.96 | 137.42
308.15 K | 218.69 | 208.8 | 200.2 | 191.31 | 182.17 | 173 | 164.48 | 154.68 | 146.01 | 137.49
309.15 K | 219.1 | 209.1 | 200.37 | 191.5 | 182.37 | 173.19 | 164.7 | 154.79 | 146.13 | 137.53
310.15 K | 219.41 | 209.5 | 200.65 | 191.66 | 182.48 | 173.29 | 164.8 | 154.9 | 146.2 | 137.6
311.15 K | 219.69 | 209.78 | 200.99 | 191.91 | 182.68 | 173.5 | 164.88 | 155 | 146.21 | 137.65
312.15 K | 220.11 | 210.1 | 201.15 | 192.12 | 182.91 | 173.69 | 165.06 | 155.16 | 146.3 | 137.71
313.15 K | 220.35 | 210.39 | 201.51 | 192.42 | 183.06 | 173.84 | 165.16 | 155.25 | 146.43 | 137.77
